In EP0565593B1, “REDUCING PESTICIDAL INTERACTIONS IN CROPS” (priority 1990, dated 1992):

What was measured:
VELE (velvetleaf) [1] = test: Greenhouse test Procedure I with PPI or POE herbicide and foliar insecticide (Example 5; Table 5); assay type: in vivo, Abutilon theophrasti
Description: (§1) Containers were filled and compacted with a fumigated silt loam top soil to a depth of about 1.3 cm from the top of the container. A first container was designated as an untreated control, a second container was designated as a herbicide control, and a third container was designated as a herbicide + antidote test container. Each of the containers was seeded with a crop species. A measured amount of herbicide dispersed or dissolved in acetone was applied to a measured quantity of soil. To this same quantity of soil treated with herbicide, there was added a measured amount of antidote dispersed or dissolved in acetone. The quantity of soil treated with the herbicide and antidote was thoroughly mixed to incorporate the herbicide and antidote in the soil uniformly. The seed bed in the third container of soil was covered with the soil treated with the herbicide and antidote and the container was leveled. For each test series, the seed beds of the first and second containers were likewise covered by soil layers. the cover layer of the first container was not treated with herbicide or antidote.
(§2) Insecticide application was made as described in the tests in the examples below. The containers were then placed on a bench in a greenhouse and sub-irrigated as required for the duration of the test.
(§3) Said herbicide and antidote were sequentially pipetted onto cover layers, which were spread over the seed beds and subirrigated as in Procedure I and allowed to grow to a height of about 10 cm over a period of 11 days. Herbicide No. 1 and Insecticide No. 2 were then sequentially sprayed on the plant foliage. Observations were made three (3) weeks after initial treatment, 10 days after foliar treatment).

Corn [2] = test: as above; assay type: in vivo
Description: as §1, §2, §3

VELE (velvetleaf) [3] = test: Greenhouse test Procedure II (Example 4; Table 4); assay type: in vivo, Abutilon theophrasti; settings: 3 weeks
Procedure, shortened: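 Herbicide, insecticide and antidote in acetone were track-sprayed sequentially onto a soil cover layer, incorporated and spread over seeded beds in silt loam. Initial overhead irrigation equal to 0.6 cm rainfall, then sub-irrigation in the greenhouse. Injury was rated 3 weeks after treatment against untreated and herbicide-only controls.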

Corn [4] = test: Field trials, PPI, PRE and POE herbicide applications with terbufos (Example 7); assay type: in vivo; settings: mean of five locations, soil-applied insecticide prior to planting
Description: This example summarizes the results of one series of field trials from a plurality of locations and soil types wherein test chemicals were applied in various modes including pre-plant incorporated (PPI), post emergence (POE) and preemergence (PRE) with and without a safener (antidote). Test Chemicals were Herbicide Nos 1, 2, 3 and 7-9; Insecticide No. 1 and Antidote No. 1.
In these trials Insecticide No. 1 (terbufos) was T-banded or furrow applied at labeled rates prior to planting corn. PPI herbicide treatments were applied prior to insecticide applications; PRE treatments were applied after the insecticide application either prior to or after seeding the corn. POE herbicide applications were made at 2 corn-growth stages, i.e., early post (EP) at the 2-3 leaf stage and late post (LP) at the 4-7 leaf stage. Plots were small plot with 3 replications in a randomized complete block design. In the PRE and PPI herbicide treatments, Antidote No. 1 was applied as a tankmix in both treatments. In the POE herbicide treatments, that antidote was applied as a tank mix with the herbicide at the EP and LP stages.

Corn [5] = test: Greenhouse test, combination of Procedures II and III: insecticide in-furrow or in cover layer, herbicide and antidote incorporated in cover layer (Examples 1-3, 6; Tables 1-3, 6); assay type: in vivo; settings: for % Injury Corn / % Corn Injury PN 3320 / % Corn Injury PN 3377: 3 weeks; for Percent Injury Corn: 7 weeks
[6] = Herbicide 1 0.07 Kg/Ha POE, 10 days after foliar treatment
[7] = Herbicide 1 0.14 Kg/Ha PPI, 3 weeks
[8] = Herbicide 1 0.28 Kg/Ha POE, 10 days after foliar treatment
[9] = Herbicide 1 0.56 Kg/Ha PPI, 3 weeks
[10] = Herbicide 1 1.12 Kg/Ha POE, 10 days after foliar treatment
[11] = Herbicide 1 2.24 Kg/Ha PPI, 3 weeks
[12] = Insecticide 2 1.68 (foliar) + Herbicide 1 0.14 Kg/Ha PPI, 3 weeks
[13] = Insecticide 2 1.68 (foliar) + Herbicide 1 0.56 Kg/Ha PPI, 3 weeks
[14] = Insecticide 2 1.68 (foliar) + Herbicide 1 2.24 Kg/Ha PPI, 3 weeks
[15] = Insecticide 2 1.68 + Herbicide 1 0.07 Kg/Ha POE, 10 days after foliar treatment
[16] = Insecticide 2 1.68 + Herbicide 1 0.28 Kg/Ha POE, 10 days after foliar treatment
[17] = Ex. 6: Insecticide 1 0.23 Kg/305m + Herbicide 1 0.14 Kg/Ha
[18] = Ex. 6: Insecticide 1 0.23 Kg/305m + Herbicide 1 0.56 Kg/Ha
[19] = Ex. 6: Insecticide 2 0.23 Kg/305m + Herbicide 1 0.14 Kg/Ha
[20] = Ex. 6: Insecticide 2 0.23 Kg/305m + Herbicide 1 0.56 Kg/Ha

COC(=O)c1c(Cl)nn(C)c1S(=O)(=O)NC(=O)Nc1nc(OC)cc(OC)n1 [Herbicide No. 1, N-[(4,6-dimethoxypyrimidin-2-yl)aminocarbonyl]-3-chloro-4-methoxycarbonyl-5-sulfonamide, reference compound]
% Injury VELE (VELE (velvetleaf) [1]; [6]): 30% | % Injury VELE (VELE (velvetleaf) [1]; [7]): 78% | % Injury VELE (VELE (velvetleaf) [1]; [8]): 30% | % Injury VELE (VELE (velvetleaf) [1]; [9]): 93% | % Injury VELE (VELE (velvetleaf) [1]; [10]): 20% | % Injury VELE (VELE (velvetleaf) [1]; [11]): 95% | % Injury VELE (VELE (velvetleaf) [1]; [12]): 90% | % Injury VELE (VELE (velvetleaf) [1]; [13]): 90% | % Injury VELE (VELE (velvetleaf) [1]; [14]): 98% | % Injury VELE (VELE (velvetleaf) [1]; [15]): 23% | % Injury VELE (VELE (velvetleaf) [1]; [16]): 42% | % Injury Corn (Corn [2]; [6]): 0% | % Injury Corn (Corn [2]; [7]): 5% | % Injury Corn (Corn [2]; [8]): 15% | % Injury Corn (Corn [2]; [9]): 28% | % Injury Corn (Corn [2]; [10]): 7% | % Injury Corn (Corn [2]; [11]): 58% | % Injury Corn (Corn [2]; [12]): 18% | % Injury Corn (Corn [2]; [13]): 10% | % Injury Corn (Corn [2]; [14]): 87% | % Injury Corn (Corn [2]; [15]): 10% | % Injury Corn (Corn [2]; [16]): 10% | % Injury VELE (VELE (velvetleaf) [3]; Herbicide 1 0.07 kg/Ha): 20% | % Injury VELE (VELE (velvetleaf) [3]; Herbicide 1 0.14 kg/Ha): 67% | % Injury VELE (VELE (velvetleaf) [3]; Insecticide 2 3.36 + Herbicide 1 0.07 kg/Ha): 10% | % Injury VELE (VELE (velvetleaf) [3]; Insecticide 2 3.36 + Herbicide 1 0.14 kg/Ha): 20% | interaction with Insecticide No. 1 after POE herbicide (Corn [4]): insignificant interaction | % Injury Corn (Corn [5]; Ex. 2: Herbicide 1 0.14 Kg/Ha): 4% | % Injury Corn (Corn [5]; Ex. 2: Herbicide 1 0.56 Kg/Ha): 58% | injury to corn (Corn [5]; Ex. 2: Herbicide No. 1 0.14 kg/ha + Insecticide No. 2, no antidote): 65% | % Injury Corn (Corn [5]; Ex. 2: Insecticide 1 0.11 kg/305m + Herbicide 1 0.14 Kg/Ha): 83% | % Injury Corn (Corn [5]; Ex. 2: Insecticide 1 0.11 kg/305m + Herbicide 1 0.56 Kg/Ha): 93% | % Injury Corn (Corn [5]; Ex. 2: Insecticide 1 0.23 Kg/305m + Herbicide 1 0.14 + Herbicide 2 4.48 Kg/Ha): 90% | % Injury Corn (Corn [5]; Ex. 2: Insecticide 1 0.23 Kg/305m + Herbicide 1 0.14 Kg/Ha): 83% | % Injury Corn (Corn [5]; Ex. 2: Insecticide 1 0.23 Kg/305m + Herbicide 1 0.56 Kg/Ha): 96% | % Injury Corn (Corn [5]; Ex. 2: Insecticide 2 3.36 Kg/Ha + Herbicide 1 0.14 + Herbicide 2 4.48 Kg/Ha): 83% | % Injury Corn (Corn [5]; Ex. 3: Herbicide 1 0.14 Kg/Ha): 10% | % Injury Corn (Corn [5]; Ex. 3: Herbicide 1 0.56 Kg/Ha): 63% | % Injury Corn (Corn [5]; Ex. 3: Insecticide 3 (227 g) + Herbicide 1 0.14 + Herbicide 2 4.48 Kg/Ha): 73% | % Injury Corn (Corn [5]; Ex. 3: Insecticide 3 (227g) + Herbicide 1 0.14 Kg/Ha): 45% | % Injury Corn (Corn [5]; Ex. 3: Insecticide 3 (227g) + Herbicide 1 0.56 Kg/Ha): 93% | % Injury Corn (Corn [5]; Ex. 3: Insecticide 4 (227g) + Herbicide 1 0.14 + Herbicide 2 4.48 Kg/Ha): 88% | % Injury Corn (Corn [5]; Ex. 3: Insecticide 4 (227g) + Herbicide 1 0.14 Kg/Ha): 55% | % Injury Corn (Corn [5]; Ex. 3: Insecticide 4 (227g) + Herbicide 1 0.56 Kg/Ha): 45% | % Corn Injury PN 3320 (Corn [5]; Ex. 6: Herbicide 1 0.14 Kg/Ha): 85% | % Corn Injury PN 3377 (Corn [5]; Ex. 6: Herbicide 1 0.14 Kg/Ha): 12% | % Corn Injury PN 3320 (Corn [5]; Ex. 6: Herbicide 1 0.56 Kg/Ha): 88% | % Corn Injury PN 3377 (Corn [5]; Ex. 6: Herbicide 1 0.56 Kg/Ha): 23% | % Corn Injury PN 3320 (Corn [5]; [17]): 95% | % Corn Injury PN 3377 (Corn [5]; [17]): 78% | % Corn Injury PN 3320 (Corn [5]; [18]): 95% | % Corn Injury PN 3377 (Corn [5]; [18]): 90% | % Corn Injury PN 3320 (Corn [5]; [19]): 85% | % Corn Injury PN 3377 (Corn [5]; [19]): 48% | % Corn Injury PN 3320 (Corn [5]; [20]): 88% | % Corn Injury PN 3377 (Corn [5]; [20]): 90% | Percent Injury Corn (Corn [5]; Herbicide 1 0.14 Kg/Ha): 18% | Percent Injury Corn (Corn [5]; Herbicide 1 0.56 Kg/Ha): 58% | Percent Injury Corn (Corn [5]; Herbicide 1 2.24 Kg/Ha): 85% | Percent Injury Corn (Corn [5]; Insecticide 1 0.23 kg/305m + Herbicide 1 0.14 Kg/Ha): 85% | Percent Injury Corn (Corn [5]; Insecticide 1 0.23 kg/305m + Herbicide 1 0.56 Kg/Ha): 97% | Percent Injury Corn (Corn [5]; Insecticide 1 0.23 kg/305m + Herbicide 1 2.24 Kg/Ha): 95% | Percent Injury Corn (Corn [5]; Insecticide 2 3.36 kg/ha + Herbicide 1 0.14 Kg/Ha): 60% | Percent Injury Corn (Corn [5]; Insecticide 2 3.36 kg/ha + Herbicide 1 0.56 Kg/Ha): 90% | Percent Injury Corn (Corn [5]; Insecticide 2 3.36 kg/ha + Herbicide 1 2.24 Kg/Ha): 95%
